Assay results: patent US20240269139A1, “COMPOUNDS FOR TARGETED PROTEIN DEGRADATION OF KINASES” (DANA-FARBER CANCER INSTITUTE, INC., priority 2020, published 2024)
Like-named read-outs stand apart in the source and are kept apart here.

Assays:
[1] = target: extended human kinome (kinase-like proteins) (Homo sapiens, UniProt P27144); experiment: Whole cell quantitative proteomics: extended kinome hits
[2] = target: extended human kinome (kinase-like proteins) (Homo sapiens, UniProt Q9UIJ7); experiment: as above
Sequence of extended human kinome (kinase-like proteins) (Homo sapiens, UniProt Q9UIJ7) (Q9UIJ7 whole entry): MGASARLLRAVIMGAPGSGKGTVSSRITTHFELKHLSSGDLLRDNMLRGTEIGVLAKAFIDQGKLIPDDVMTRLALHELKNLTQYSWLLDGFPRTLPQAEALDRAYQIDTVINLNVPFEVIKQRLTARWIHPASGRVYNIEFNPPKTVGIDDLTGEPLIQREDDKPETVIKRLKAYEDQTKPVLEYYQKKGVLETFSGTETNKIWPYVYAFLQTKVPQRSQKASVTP

[3] = target: T1, protein kinases (human kinome) (Homo sapiens, UniProt O14965); assay type: cell-based
T1 sequence (O14965 1-403): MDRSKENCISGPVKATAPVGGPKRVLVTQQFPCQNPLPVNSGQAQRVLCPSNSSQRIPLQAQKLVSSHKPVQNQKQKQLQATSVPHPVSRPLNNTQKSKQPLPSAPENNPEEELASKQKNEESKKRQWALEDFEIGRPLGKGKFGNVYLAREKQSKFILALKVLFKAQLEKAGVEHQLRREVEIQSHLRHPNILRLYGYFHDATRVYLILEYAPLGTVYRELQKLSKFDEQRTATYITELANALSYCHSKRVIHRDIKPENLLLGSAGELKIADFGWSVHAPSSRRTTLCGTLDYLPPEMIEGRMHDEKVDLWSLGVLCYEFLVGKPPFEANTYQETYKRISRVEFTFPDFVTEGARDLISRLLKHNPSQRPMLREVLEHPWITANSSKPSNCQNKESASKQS

[4] = target: protein kinases (human kinome) (Homo sapiens, UniProt Q2M2I8); assay type: cell-based
Sequence of protein kinases (human kinome) (Homo sapiens, UniProt Q2M2I8) (Q2M2I8 whole entry): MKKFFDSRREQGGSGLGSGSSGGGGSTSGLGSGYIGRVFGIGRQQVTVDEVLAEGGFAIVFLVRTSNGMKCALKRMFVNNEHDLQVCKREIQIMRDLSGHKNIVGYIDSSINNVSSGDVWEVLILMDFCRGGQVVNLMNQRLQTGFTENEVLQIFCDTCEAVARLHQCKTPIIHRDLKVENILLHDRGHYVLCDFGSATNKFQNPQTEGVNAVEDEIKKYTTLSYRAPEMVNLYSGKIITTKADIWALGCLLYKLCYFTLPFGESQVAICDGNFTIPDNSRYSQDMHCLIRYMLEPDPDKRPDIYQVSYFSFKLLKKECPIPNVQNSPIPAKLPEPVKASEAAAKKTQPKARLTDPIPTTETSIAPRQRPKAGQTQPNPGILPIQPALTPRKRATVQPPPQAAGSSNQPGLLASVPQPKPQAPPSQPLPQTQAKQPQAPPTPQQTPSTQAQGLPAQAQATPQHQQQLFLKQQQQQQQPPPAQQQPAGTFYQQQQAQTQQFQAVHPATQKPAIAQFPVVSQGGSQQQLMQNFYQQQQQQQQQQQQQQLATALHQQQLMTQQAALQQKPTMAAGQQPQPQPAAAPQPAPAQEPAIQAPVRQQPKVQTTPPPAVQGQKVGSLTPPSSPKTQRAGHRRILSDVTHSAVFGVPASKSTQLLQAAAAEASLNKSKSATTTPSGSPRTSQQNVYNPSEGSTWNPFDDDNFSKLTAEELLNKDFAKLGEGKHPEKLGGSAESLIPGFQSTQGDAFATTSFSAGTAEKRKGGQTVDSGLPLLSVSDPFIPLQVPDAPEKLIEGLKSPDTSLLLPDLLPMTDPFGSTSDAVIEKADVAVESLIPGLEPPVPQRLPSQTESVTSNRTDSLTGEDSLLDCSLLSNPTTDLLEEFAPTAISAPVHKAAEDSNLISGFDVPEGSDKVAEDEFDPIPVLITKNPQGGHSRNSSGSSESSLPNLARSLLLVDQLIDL

[5] = target: T2, extended human kinome (kinase-like proteins) (Homo sapiens, UniProt Q7L8L6); experiment: Whole cell quantitative proteomics: extended kinome hits; conditions: Accession Q7L8L6
T2 sequence (Q7L8L6 28-764): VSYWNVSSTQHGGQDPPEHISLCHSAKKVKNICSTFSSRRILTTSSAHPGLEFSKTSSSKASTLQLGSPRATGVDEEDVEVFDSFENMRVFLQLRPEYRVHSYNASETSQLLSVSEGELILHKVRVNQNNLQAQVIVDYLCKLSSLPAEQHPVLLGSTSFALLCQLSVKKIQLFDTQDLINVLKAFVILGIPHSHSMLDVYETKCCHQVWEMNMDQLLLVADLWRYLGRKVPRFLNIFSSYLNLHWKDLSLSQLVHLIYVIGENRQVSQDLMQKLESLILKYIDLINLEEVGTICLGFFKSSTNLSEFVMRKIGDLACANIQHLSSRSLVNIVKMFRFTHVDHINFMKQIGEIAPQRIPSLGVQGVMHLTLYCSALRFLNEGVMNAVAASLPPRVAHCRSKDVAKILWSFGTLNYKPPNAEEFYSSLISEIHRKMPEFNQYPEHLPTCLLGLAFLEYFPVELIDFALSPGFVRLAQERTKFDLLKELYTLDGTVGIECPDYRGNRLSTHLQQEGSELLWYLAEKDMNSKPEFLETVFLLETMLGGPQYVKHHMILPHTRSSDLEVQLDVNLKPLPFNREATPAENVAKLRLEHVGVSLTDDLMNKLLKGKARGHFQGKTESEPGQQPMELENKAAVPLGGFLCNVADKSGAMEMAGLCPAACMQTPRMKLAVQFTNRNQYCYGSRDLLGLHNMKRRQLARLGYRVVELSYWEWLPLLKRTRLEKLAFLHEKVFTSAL

[6] = target: protein kinases (human kinome) (Homo sapiens, UniProt P30291); assay type: cell-based; conditions: for logFC of WEE1: WEE1 P30291-1
Sequence of protein kinases (human kinome) (Homo sapiens, UniProt P30291) (P30291 whole entry): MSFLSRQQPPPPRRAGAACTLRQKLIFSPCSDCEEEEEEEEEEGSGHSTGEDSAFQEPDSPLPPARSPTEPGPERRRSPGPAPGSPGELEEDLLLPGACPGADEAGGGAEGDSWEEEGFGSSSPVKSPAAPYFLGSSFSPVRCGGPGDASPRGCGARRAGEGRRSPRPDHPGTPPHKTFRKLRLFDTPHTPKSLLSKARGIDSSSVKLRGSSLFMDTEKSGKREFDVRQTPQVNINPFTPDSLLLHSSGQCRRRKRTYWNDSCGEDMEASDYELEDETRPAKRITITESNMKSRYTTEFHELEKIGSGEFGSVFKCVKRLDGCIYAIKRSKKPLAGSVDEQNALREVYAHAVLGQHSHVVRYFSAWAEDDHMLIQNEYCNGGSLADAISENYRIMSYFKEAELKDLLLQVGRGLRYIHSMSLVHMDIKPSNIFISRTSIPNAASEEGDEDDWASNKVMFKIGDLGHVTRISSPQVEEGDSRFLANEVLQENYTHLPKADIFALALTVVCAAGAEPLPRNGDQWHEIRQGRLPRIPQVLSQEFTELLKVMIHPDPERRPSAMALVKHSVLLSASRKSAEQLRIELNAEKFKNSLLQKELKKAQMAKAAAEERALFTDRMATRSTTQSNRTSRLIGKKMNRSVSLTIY

[7] = target: protein kinases (human kinome) (Homo sapiens, UniProt Q00534); assay type: cell-based; conditions: for logFC CDK6: CDK6 (Q00534), direction down; for logFC of CDK6 (Q00534): down
Sequence of protein kinases (human kinome) (Homo sapiens, UniProt Q00534) (Q00534 whole entry): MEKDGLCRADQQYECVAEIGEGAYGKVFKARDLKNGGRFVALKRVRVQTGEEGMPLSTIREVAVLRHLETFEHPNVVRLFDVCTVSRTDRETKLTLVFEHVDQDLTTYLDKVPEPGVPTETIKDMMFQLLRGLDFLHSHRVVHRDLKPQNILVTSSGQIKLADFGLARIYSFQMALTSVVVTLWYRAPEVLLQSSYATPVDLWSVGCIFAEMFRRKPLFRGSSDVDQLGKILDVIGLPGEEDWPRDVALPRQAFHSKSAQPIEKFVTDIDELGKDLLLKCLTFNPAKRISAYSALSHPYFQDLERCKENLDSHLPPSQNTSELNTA

[8] = target: protein kinases (human kinome) (Homo sapiens, UniProt P11802); assay type: cell-based
Sequence of protein kinases (human kinome) (Homo sapiens, UniProt P11802) (P11802 whole entry): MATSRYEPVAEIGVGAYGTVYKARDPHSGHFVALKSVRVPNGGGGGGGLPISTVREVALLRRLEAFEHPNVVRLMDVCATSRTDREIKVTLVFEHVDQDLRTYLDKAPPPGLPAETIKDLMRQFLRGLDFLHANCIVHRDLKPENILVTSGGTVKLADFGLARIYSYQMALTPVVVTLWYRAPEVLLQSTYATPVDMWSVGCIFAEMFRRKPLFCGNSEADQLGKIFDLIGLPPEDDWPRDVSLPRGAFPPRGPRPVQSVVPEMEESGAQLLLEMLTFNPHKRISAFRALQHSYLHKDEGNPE

[9] = target: extended human kinome (kinase-like proteins) (Homo sapiens, UniProt Q16875); experiment: Whole cell quantitative proteomics: extended kinome hits; conditions: Accession Q16875
Sequence of extended human kinome (kinase-like proteins) (Homo sapiens, UniProt Q16875) (Q16875 whole entry): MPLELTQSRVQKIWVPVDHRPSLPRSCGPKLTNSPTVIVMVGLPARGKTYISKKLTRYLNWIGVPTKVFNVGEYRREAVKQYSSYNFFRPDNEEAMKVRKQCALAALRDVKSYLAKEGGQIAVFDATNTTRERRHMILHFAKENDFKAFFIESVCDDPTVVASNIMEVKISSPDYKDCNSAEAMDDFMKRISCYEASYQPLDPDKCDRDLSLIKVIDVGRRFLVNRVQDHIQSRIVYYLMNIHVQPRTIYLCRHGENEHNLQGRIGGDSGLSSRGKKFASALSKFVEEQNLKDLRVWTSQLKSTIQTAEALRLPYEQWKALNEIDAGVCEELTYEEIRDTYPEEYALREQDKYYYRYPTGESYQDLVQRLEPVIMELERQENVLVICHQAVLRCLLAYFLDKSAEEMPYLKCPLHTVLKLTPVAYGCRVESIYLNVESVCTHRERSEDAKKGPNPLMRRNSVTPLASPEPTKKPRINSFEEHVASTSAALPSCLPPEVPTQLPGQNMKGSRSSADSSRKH

[10] = target: protein kinases (human kinome) (Homo sapiens, UniProt Q9H0K1); assay type: cell-based; conditions: experiment wp131
Sequence of protein kinases (human kinome) (Homo sapiens, UniProt Q9H0K1) (Q9H0K1 whole entry): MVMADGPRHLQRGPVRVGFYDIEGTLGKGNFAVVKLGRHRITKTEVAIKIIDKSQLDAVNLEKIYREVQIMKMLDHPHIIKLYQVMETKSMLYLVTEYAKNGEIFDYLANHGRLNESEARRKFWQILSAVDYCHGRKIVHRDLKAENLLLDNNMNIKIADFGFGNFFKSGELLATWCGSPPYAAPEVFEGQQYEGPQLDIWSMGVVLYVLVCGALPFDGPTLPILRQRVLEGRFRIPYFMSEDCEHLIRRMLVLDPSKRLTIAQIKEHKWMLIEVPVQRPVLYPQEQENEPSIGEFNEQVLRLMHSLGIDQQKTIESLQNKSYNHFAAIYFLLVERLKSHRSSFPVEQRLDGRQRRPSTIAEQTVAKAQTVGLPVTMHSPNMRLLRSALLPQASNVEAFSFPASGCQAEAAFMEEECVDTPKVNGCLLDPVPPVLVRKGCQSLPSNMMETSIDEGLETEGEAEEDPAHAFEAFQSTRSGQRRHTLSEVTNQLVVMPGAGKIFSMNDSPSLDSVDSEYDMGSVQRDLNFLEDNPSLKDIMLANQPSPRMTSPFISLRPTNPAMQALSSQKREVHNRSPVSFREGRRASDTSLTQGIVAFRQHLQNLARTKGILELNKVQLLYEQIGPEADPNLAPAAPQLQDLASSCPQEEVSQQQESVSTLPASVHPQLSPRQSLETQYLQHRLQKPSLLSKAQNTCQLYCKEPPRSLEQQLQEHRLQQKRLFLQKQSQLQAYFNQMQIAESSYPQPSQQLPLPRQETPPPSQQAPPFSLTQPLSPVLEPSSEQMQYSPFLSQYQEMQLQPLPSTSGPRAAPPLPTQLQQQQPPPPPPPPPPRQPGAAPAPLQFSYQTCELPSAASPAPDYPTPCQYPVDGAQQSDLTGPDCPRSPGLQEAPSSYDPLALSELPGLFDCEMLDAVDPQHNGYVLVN

Sequence of extended human kinome (kinase-like proteins) (Homo sapiens, UniProt P27144) (P27144 whole entry): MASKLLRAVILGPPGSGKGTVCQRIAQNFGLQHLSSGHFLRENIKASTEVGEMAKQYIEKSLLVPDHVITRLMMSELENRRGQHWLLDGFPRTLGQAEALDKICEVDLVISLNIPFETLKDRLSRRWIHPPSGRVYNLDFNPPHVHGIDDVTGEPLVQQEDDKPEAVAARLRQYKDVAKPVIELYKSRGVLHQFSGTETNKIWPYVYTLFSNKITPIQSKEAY

Cc1cnc(Nc2ccc(N3CCN(CCOCCOCCNC(=O)COc4cccc5c4C(=O)N(C4CCC(=O)NC4=O)C5=O)CC3)cc2)nc1Nc1cccc(S(=O)(=O)NC(C)(C)C)c1 (stereo not drawn) [JWG.118]
logFC AK4 (P27144) ([1]; experiment wp071): −0.5314 | logFC AK3 (Q9UIJ7-1) ([2]; experiment wp071): −0.4221 | logFC AURKA (O14965) ([3]; experiment wp071): −0.8861 | logFC AAK1 ([4]; AAK1 (Q2M218-1), experiment wp071, down): −3.044 | logFC AAK1 ([4]; AAK1, accession Q2M218-1, experiment wp071, direction of change down): −3.044

CNC(=O)c1ccccc1Nc1cc(Nc2ccc(N3CCN(CCOCCOCCNC(=O)CNc4cccc5c4C(=O)N(C4CCC(=O)NC4=O)C5=O)CC3)cc2OC)ncc1C(F)(F)F (stereo not drawn) [MFH.5.103.1]
logFC FASTKD5 ([5]; experiment wp076): −0.3493 | logFC AK3 (Q9UIJ7-1) ([2]; experiment wp076): −0.431 | logFC WEE1 (P30291-1) ([6]; experiment wp076): −0.9694 | logFC AURKA (O14965) ([3]; experiment wp076): −0.9893 | logFC AURKA (O14965) ([3]; experiment wp078): −0.9893

CN(C)C(=O)c1cc2cnc(Nc3ccc(N4CCN(CCCCNC(=O)COc5cccc6c5C(=O)N(C5CCC(=O)NC5=O)C6=O)CC4)cn3)nc2n1C1CCCC1 (stereo not drawn) [BSJ.04.132]
logFC FASTKD5 ([5]; experiment wp084): −0.7073 | logFC AK4 (P27144) ([1]; experiment wp084): −0.6551 | logFC AK3 (Q9UIJ7-1) ([2]; experiment wp084): −0.6124 | logFC CDK6 ([7]; experiment wp084): −0.7531 | logFC of CDK6 (Q00534) ([7]; Experiment wp084): −0.7531 | logFC CDK4 (P11802) ([8]; experiment wp084): −0.9046

O=C(COc1cccc2c1C(=O)N(C1CCC(=O)NC1=O)C2=O)NCCCCCCCC(=O)NC1(c2ccc(-c3nc4ccn5c(=O)[nH]nc5c4cc3-c3ccccc3)cc2)CCC1 (stereo not drawn) [INY.01.140.1]
logFC FASTKD5 ([5]; experiment wp081): −0.4182 | logFC AK4 (P27144) ([1]; experiment wp081): −0.4309 | logFC AK3 (Q9UIJ7-1) ([2]; experiment wp081): −0.4102

CC(C)S(=O)(=O)c1ccccc1Nc1nc(Nc2ccc(N3CCN(CCOCCOCCNC(=O)CNc4cccc5c4C(=O)N(C4CCC(=O)NC4=O)C5=O)CC3)cc2)ncc1Cl (stereo not drawn) [TL12.186]
logFC FASTKD5 ([5]; experiment wp137): −0.3409 | logFC PFKFB3 ([9]; experiment wp131): −0.5643 | logFC PFKFB3 ([9]; experiment wp137): −0.4067 | logFC CDK6 ([7]; experiment wp016): −0.5831 | logFC CDK6 ([7]; experiment wp131): −0.9892 | logFC CDK6 ([7]; experiment wp137): −0.8724 | logFC of CDK6 (Q00534) ([7]; Experiment wp016): −0.5831 | logFC of CDK6 (Q00534) ([7]; Experiment wp131): −0.9892 | logFC of CDK6 (Q00534) ([7]; Experiment wp137): −0.8724 | logFC of WEE1 ([6]; experiment wp137): −2.511 | logFC WEE1 (P30291-1) ([6]; experiment wp016): −1.514 | logFC WEE1 (P30291-1) ([6]; experiment wp131): −2.574 | logFC WEE1 (P30291-1) ([6]; experiment wp137): −2.511 | logFC of SIK2 ([10]; Accession Q9H0K1): −1.317 | logFC SIK2 (Q9H0K1) ([10]; direction of change down): −1.317 | logFC CDK4 (P11802) ([8]; experiment wp016): −0.9166 | logFC CDK4 (P11802) ([8]; experiment wp131): −1.186 | logFC CDK4 (P11802) ([8]; experiment wp137): −1.173 | logFC AURKA (O14965) ([3]; experiment wp016): −1.758 | logFC AURKA (O14965) ([3]; experiment wp131): −3.193 | logFC AURKA (O14965) ([3]; experiment wp137): −2.642 | logFC AAK1 ([4]; AAK1 (Q2M218-1), experiment wp016, down): −1.338 | logFC AAK1 ([4]; AAK1 (Q2M218-1), experiment wp131, down): −1.52 | logFC AAK1 ([4]; AAK1 (Q2M218-1), experiment wp137, down): −1.31 | logFC AAK1 ([4]; AAK1, accession Q2M218-1, experiment wp016, direction of change down): −1.338 | logFC AAK1 ([4]; AAK1, accession Q2M218-1, experiment wp131, direction of change down): −1.52 | logFC AAK1 ([4]; AAK1, accession Q2M218-1, experiment wp137, direction of change down): −1.31

Cc1ccc(C(=O)Nc2ccc(CN3CCN(CCCOCCOCCOCCNC(=O)COc4cccc5c4C(=O)N(C4CCC(=O)NC4=O)C5=O)CC3)c(C(F)(F)F)c2)cc1C#Cc1cnc2cccnn12 (stereo not drawn) [SB1.G.187]
logFC FASTKD5 ([5]; experiment wp056): −0.4238 | logFC AK4 (P27144) ([1]; experiment wp056): −0.4478 | logFC CDK6 ([7]; experiment wp103): −0.346 | logFC of CDK6 (Q00534) ([7]; Experiment wp103): −0.346

CC(C)(C)c1nc(-c2cccc(NS(=O)(=O)c3c(F)cccc3F)c2F)c(-c2ccnc(NCCOCCNC(=O)CCOCCOCCNc3cccc4c3C(=O)N(C3CCC(=O)NC3=O)C4=O)n2)s1 (stereo not drawn) [DD.03.106]
logFC FASTKD5 ([5]; experiment wp147, 4 uM): −0.8688 | logFC AK4 (P27144) ([1]; experiment wp147, 4 uM): −0.5652 | logFC AK3 (Q9UIJ7-1) ([2]; experiment wp147, 4 uM): −0.7202 | logFC CDK6 ([7]; experiment wp047): −1.086 | logFC CDK6 ([7]; experiment wp137): −1.083 | logFC CDK6 ([7]; experiment wp147, 1 uM): −0.8934 | logFC CDK6 ([7]; experiment wp147, 2 uM): −1.348 | logFC CDK6 ([7]; experiment wp147, 4 uM): −1.159 | logFC of CDK6 (Q00534) ([7]; Experiment wp047): −1.086 | logFC of CDK6 (Q00534) ([7]; Experiment wp137): −1.083 | logFC of CDK6 (Q00534) ([7]; Experiment wp147, 1 uM): −0.8934 | logFC of CDK6 (Q00534) ([7]; Experiment wp147, 2 uM): −1.348 | logFC of CDK6 (Q00534) ([7]; Experiment wp147, 4 uM): −1.159 | logFC CDK4 (P11802) ([8]; experiment wp047): −0.9277 | logFC CDK4 (P11802) ([8]; experiment wp137): −0.8885 | logFC CDK4 (P11802) ([8]; experiment wp147, 1 uM): −0.6961 | logFC CDK4 (P11802) ([8]; experiment wp147, 2 uM): −0.9835 | logFC CDK4 (P11802) ([8]; experiment wp147, 4 uM): −0.726 | logFC AURKA (O14965) ([3]; experiment wp147, 4 uM): −0.3302

CC(=O)c1c(C)c2cnc(Nc3ccc(N4CCN(CCOCCOCCOCCNC(=O)COc5cccc6c5C(=O)N(C5CCC(=O)NC5=O)C6=O)CC4)cn3)nc2n(C2CCCC2)c1=O (stereo not drawn) [BSJ.03.123]
logFC FASTKD5 ([5]; experiment wp084): −0.5926 | logFC AK4 (P27144) ([1]; experiment wp084): −0.5103 | logFC AK3 (Q9UIJ7-1) ([2]; experiment wp084): −0.4577 | logFC CDK6 ([7]; experiment wp084): −3.058 | logFC of CDK6 (Q00534) ([7]; Experiment wp084): −3.058 | logFC of WEE1 ([6]; experiment wp084): −0.3883 | logFC WEE1 (P30291-1) ([6]; experiment wp084): −0.3883 | logFC CDK4 (P11802) ([8]; experiment wp084): −0.9496

CC(C)(C)c1nc(-c2cccc(NS(=O)(=O)c3c(F)cccc3F)c2F)c(-c2ccnc(NCCOCCNC(=O)CCOCCOCCNc3cccc4c3CN(C3CCC(=O)NC3=O)C4=O)n2)s1 (stereo not drawn) [DD.03.107]
logFC FASTKD5 ([5]; experiment wp147, 1 uM): −0.5985 | logFC FASTKD5 ([5]; experiment wp147, 2 uM): −0.6839 | logFC FASTKD5 ([5]; experiment wp147, 4 uM): −1.268 | logFC AK4 (P27144) ([1]; experiment wp137): −0.3942 | logFC AK4 (P27144) ([1]; experiment wp147, 1 uM): −0.3992 | logFC AK4 (P27144) ([1]; experiment wp147, 2 uM): −0.4045 | logFC AK4 (P27144) ([1]; experiment wp147, 4 uM): −0.898 | logFC AK3 (Q9UIJ7-1) ([2]; experiment wp147, 1 uM): −0.5265 | logFC AK3 (Q9UIJ7-1) ([2]; experiment wp147, 2 uM): −0.5607 | logFC AK3 (Q9UIJ7-1) ([2]; experiment wp147, 4 uM): −1.001
